Measurements as given in ChEMBL document CHEMBL1124529, “Sodium channel binding and anticonvulsant activities for the enantiomers of a bicyclic 2,4-oxazolidinedione and monocyclic models” (J Med Chem, 1989).

What was measured:
[1] = Anticonvulsant activity of the compound,0.5 hr after administration in mice subjected to rotarod toxicity test; type: organism-based; settings: mouse, in vivo
Mus musculus [2] = assay: Anticonvulsant activity of the compound, 0.5 hr after administration of compound in mice subjected to subcutaneous metrazole challenge (85 mg/kg); type: functional; settings: sc
[3] = target: T1, Sodium channel alpha subunits; brain (Types I, II, III) (Rattus norvegicus) (UniProt P04775+P04774+P08104); assay: Displacement of [3H]BTX-B from rat cerebral cortex voltage-gated sodium channel, 0.5 hr after 500 uM; type: tissue-based
T1 sequence (P04775 whole entry, looked up, other chains not shown): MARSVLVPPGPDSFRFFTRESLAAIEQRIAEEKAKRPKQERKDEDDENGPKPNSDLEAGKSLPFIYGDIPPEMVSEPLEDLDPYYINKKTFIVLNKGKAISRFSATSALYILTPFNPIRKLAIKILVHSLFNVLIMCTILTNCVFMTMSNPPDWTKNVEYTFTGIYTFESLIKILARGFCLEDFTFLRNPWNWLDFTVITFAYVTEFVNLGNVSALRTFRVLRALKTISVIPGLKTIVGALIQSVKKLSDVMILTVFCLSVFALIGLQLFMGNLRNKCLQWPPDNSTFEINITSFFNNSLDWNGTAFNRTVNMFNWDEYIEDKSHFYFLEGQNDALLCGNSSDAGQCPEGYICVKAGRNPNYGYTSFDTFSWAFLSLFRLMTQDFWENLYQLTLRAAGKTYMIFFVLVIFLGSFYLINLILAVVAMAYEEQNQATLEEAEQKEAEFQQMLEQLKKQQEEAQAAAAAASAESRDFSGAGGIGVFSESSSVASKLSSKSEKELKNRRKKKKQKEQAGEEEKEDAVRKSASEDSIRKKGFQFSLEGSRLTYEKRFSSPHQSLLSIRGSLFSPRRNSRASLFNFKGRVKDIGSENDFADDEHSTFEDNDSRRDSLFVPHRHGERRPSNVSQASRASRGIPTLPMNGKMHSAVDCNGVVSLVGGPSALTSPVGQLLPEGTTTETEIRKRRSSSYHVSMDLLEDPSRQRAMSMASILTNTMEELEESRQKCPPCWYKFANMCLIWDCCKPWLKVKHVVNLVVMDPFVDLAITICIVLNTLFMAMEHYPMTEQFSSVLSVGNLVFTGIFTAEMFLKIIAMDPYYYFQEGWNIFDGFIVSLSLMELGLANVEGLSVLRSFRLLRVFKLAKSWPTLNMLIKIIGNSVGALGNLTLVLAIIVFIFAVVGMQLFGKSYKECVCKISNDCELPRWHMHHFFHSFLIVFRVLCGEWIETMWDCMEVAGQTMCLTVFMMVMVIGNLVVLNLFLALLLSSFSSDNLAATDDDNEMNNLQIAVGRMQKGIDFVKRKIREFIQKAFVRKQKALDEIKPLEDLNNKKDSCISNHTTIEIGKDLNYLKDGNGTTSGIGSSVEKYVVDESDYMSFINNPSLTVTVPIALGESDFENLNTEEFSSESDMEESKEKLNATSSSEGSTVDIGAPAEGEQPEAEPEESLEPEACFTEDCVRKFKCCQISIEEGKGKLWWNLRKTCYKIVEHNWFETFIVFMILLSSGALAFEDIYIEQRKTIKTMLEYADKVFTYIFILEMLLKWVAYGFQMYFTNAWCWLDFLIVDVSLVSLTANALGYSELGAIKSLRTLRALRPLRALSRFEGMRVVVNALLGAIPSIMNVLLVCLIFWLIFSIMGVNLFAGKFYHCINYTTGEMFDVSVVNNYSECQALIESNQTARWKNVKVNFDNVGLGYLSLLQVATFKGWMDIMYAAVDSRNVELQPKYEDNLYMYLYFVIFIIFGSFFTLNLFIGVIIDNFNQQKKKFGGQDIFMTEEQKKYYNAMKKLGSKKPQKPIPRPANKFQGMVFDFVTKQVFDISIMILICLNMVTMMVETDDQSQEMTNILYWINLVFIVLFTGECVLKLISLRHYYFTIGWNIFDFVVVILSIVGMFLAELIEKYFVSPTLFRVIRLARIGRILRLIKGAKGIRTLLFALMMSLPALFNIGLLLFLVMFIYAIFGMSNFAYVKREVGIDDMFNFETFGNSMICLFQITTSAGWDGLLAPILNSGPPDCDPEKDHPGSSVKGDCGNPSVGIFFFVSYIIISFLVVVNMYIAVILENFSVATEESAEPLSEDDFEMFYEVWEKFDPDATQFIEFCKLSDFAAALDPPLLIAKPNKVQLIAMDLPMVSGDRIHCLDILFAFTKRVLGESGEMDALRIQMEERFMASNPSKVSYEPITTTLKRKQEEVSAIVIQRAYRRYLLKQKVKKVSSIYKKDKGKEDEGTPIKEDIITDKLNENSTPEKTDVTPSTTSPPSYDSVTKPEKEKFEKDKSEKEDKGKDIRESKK
T1 sequence (P08104 whole entry, looked up, other chains not shown): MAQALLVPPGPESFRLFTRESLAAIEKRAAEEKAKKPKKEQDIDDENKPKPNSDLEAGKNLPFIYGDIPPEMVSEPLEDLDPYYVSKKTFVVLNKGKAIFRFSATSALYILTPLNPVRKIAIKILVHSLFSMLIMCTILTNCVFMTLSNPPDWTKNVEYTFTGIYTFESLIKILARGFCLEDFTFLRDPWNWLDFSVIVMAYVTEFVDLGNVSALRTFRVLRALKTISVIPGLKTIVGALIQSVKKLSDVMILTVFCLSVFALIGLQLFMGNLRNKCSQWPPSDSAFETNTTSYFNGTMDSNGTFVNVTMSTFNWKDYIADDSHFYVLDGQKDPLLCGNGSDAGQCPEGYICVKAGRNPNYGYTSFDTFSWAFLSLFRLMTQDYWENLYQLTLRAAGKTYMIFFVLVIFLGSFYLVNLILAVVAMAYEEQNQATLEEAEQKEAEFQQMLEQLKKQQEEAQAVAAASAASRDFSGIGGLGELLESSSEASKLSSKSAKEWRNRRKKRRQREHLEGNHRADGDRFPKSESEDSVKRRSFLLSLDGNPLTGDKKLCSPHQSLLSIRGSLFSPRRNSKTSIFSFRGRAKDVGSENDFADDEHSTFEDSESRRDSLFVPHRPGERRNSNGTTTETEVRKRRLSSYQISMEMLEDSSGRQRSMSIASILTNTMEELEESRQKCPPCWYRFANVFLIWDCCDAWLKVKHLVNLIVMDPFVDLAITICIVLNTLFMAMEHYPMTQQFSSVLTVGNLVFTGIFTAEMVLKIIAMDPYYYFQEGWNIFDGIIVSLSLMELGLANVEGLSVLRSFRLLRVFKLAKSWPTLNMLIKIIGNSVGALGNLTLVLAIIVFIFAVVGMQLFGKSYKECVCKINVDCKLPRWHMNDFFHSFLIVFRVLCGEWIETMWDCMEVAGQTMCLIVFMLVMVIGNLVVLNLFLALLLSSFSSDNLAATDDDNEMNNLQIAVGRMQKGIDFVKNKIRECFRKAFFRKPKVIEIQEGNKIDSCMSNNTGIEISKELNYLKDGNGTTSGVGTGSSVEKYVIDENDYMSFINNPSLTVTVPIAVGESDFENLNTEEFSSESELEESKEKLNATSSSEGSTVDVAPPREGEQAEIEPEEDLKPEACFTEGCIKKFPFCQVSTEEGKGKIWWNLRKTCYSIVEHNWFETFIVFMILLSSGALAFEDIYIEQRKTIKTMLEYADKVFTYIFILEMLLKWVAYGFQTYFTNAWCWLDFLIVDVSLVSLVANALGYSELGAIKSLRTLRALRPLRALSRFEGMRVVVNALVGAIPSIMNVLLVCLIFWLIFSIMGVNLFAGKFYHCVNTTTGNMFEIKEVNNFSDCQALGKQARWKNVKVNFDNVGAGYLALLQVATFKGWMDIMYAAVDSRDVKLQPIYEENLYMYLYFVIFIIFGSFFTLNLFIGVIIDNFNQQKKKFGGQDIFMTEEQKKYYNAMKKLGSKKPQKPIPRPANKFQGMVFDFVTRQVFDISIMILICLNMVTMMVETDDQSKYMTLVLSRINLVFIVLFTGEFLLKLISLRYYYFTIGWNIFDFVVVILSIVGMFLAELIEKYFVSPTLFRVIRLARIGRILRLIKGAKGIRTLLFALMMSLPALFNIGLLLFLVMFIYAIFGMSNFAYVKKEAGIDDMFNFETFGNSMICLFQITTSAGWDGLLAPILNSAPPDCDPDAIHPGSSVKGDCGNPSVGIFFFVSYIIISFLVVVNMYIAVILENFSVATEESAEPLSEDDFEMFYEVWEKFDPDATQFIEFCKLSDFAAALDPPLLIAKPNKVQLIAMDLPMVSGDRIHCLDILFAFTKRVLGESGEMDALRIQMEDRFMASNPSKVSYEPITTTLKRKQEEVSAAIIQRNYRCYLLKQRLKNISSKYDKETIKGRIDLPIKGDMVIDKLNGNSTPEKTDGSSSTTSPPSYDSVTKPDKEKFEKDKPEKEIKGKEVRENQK

Mus musculus [4] = assay: Anticonvulsant activity of the compound, 0.5 hr after administration in maximal electroshock mice model; type: functional
[5] = target: T1, Sodium channel alpha subunits; brain (Types I, II, III) (Rattus norvegicus); assay: Displacement of [3H]BTX-B from rat cerebral cortex voltage-gated sodium channel, 0.25 hr after 160 uM; type: tissue-based
Mus musculus [6] = species: Mus musculus; assay: Anticonvulsant activity when mice were subjected to maximal electroshock; type: functional
[7] = target: T1, Sodium channel alpha subunits; brain (Types I, II, III) (Rattus norvegicus); assay: Displacement of [3H]BTX-B from rat cerebral cortex voltage-gated sodium channel, 0.5 hr after 190 uM; type: tissue-based
[8] = Anticonvulsant activity of the compound,0.25 h after administration in mice subjected to rotarod toxicity test; type: organism-based; settings: mouse, in vivo

SMILES | TD50 at 0.5 h [1] | ED50 (Mus musculus [2]) | inhibition [3] | ED50 (Mus musculus [4]) | inhibition [5] | ED50 (Mus musculus [6]) | inhibition [7] | TD50 at 0.25 h [8]
CC[C@@]1(c2ccccc2)OC(=O)N(C)C1=O | 395 mg/kg | 64 mg/kg | 45% | 188 mg/kg | – | – | – | –
O=C1OC2(c3ccccc3)CCCCCN1C2=O (racemic) | 147 mg/kg | 45 mg/kg | – | 66 mg/kg | 50% | – | – | –
CCC1(c2ccccc2)OC(=O)N(C)C1=O (racemic) | – | – | 50% | 124 mg/kg | – | – | – | –
CC[C@@]1(c2ccccc2)OC(=O)NC1=O | 155 mg/kg | 42 mg/kg | 36% | 141 mg/kg | – | – | – | –
CC(=O)N[C@H](C(=O)NCc1ccccc1)c1ccccc1 | – | – | – | – | – | > 300 mg/kg | – | –
O=C1O[C@]2(c3ccccc3)CCCCCN1C2=O | – | < 400 mg/kg | – | 82 mg/kg | – | – | 50% | 334 mg/kg
CC(=O)N[C@@H](C(=O)NCc1ccccc1)c1ccccc1 | – | – | – | – | – | 26 mg/kg | – | –
CCC1(c2ccccc2)OC(=O)NC1=O (racemic) | – | – | 44% | – | – | – | – | –
CC[C@]1(c2ccccc2)OC(=O)N(C)C1=O | 354 mg/kg | 69 mg/kg | 49% | 122 mg/kg | – | – | – | –
CC[C@]1(c2ccccc2)OC(=O)NC1=O | 172 mg/kg | 108 mg/kg | 46% | 91 mg/kg | – | – | – | –
O=C1O[C@@]2(c3ccccc3)CCCCCN1C2=O | 84 mg/kg | 50 mg/kg | – | 45 mg/kg | – | – | 50% | –
